Patent publication EP0623675A1, “Altered affinity polypeptides of metal chelate binding antibodies” (HYBRITECH INCORPORATED, priority 1992, dated 1994)

Experiments:
[1] = system: CHA255 Fab' variant clone 1.1.1 (heavy chain CDR H1/H3 mutagenesis, Fig. 3B); experiment: Scatchard analysis of phage expressed altered CHA255 Fab' with InEOTUBE; format: binding, murine; settings: compared with native CHA255 Fab' (synthesized and phage expressed); crude periplasm Fab', about 10 nM; cold InEOTUBE 2.43 nM to 0.082 nM
Experimental: (§1) Free Fab' was expressed and isolated from the periplasmic space of the non-suppressor strain MK30-3 as previously described (International Patent Publication No. WO 92/06204). The concentration of antibody in periplasm preparations was estimated by comparing the ELISA signal generated by aliquots of periplasm of mutant clones to a standard curve using purified CHA255 Fab'. Data points for the Scatchard plots were prepared by incubating antibody (100 µl, approximately 10 nM) diluted in 1X PBS, 1% BSA as crude periplasm fraction with dilutions of cold InEOTUBE (2.43 nM to 0.082 nM) in 1X PBS, 1% BSA hapten spiked with ¹¹¹InEOTUBE as a tracer for […]. This assay is described in greater detail in Example 3, below. The sample was centrifuged at 6,000 rpm for 10 minutes in an Amicon Centrifree™ micro-concentrator (Amicon, Grace Co., Danvers, MA), 10,000 MW cutoff, to separate free hapten from hapten bound to Fab'. Total and free counts were determined and the slope of a plot of the ratio of bound hapten to free hapten versus the concentration of bound hapten was calculated for affinity constant (Ka).
(§2) The following were added to a 96 well microtiter plate, in triplicate: • a. 25µl EOTUBE-¹¹¹In-ground state in at 4.40pg/µl; • b. 25µl EOTUBE-ground state in at serial dilutions of the 0.40ng/µl and 0.36ng/µl made above. Eleven dilutions each plus a zero giving 24 points with a range of 10ng/well down to 4.40pg/well plus a zero. Dilute with RPMI containing 10% horse serum; • c. 25µl RPMI containing 10% horse serum; • d. 25µl antibody of interest. (concentration determined by sensitivity assay); and • e. 20µl sheep anti-mouse IgG coupled to sepharose beads (same as used in sensitivity curve assay).
(§3) The plate was incubated overnight on a rotator at room temperature. The contents of wells were aspirated onto glass-fiber filter paper, cut out and counted. Molar bound vs. bound/free were graphed. The linear regression of the part of the curve that is a straight line was determined. Ka was the negative of the slope.

[2] = system: CHA255 Fab' variant clone 3.1.1 (heavy chain CDR H1/H3 mutagenesis, Fig. 3B); experiment: as above; format: binding, murine; settings: compared with native CHA255 Fab' (synthesized and phage expressed); crude periplasm Fab', about 10 nM; cold InEOTUBE 2.43 nM to 0.082 nM
Experimental: as §1, §2, §3

[3] = system: CHA255 Fab' variant clone 3.2.1 (heavy chain CDR H1/H3 mutagenesis, Fig. 3B); experiment: as above; format: binding, murine; settings: compared with native phage expressed CHA255 Fab'; crude periplasm Fab', about 10 nM; cold InEOTUBE 2.43 nM to 0.082 nM
Experimental: as §1, §2, §3

[4] = system: CHA255 Fab' variant clone 3.7.1 (heavy chain CDR H1/H3 mutagenesis, Fig. 3B); experiment: as above; format: binding, murine; settings: compared with native CHA255 Fab' (synthesized and phage expressed); crude periplasm Fab', about 10 nM; cold InEOTUBE 2.43 nM to 0.082 nM
Experimental: as §1, §2, §3

[5] = system: CHA255 Fab' variant clone 4.2.1 (heavy chain CDR H1/H3 mutagenesis, Fig. 3B); experiment: as above; format: binding, murine; settings: compared with native CHA255 Fab' (synthesized and phage expressed); crude periplasm Fab', about 10 nM; cold InEOTUBE 2.43 nM to 0.082 nM
Experimental: as §1, §2, §3

[6] = system: monoclonal antibody CHA255; experiment: Antibody CHA255 binding assay (Centrifree ultrafiltration of labeled chelate); set-up: species or system murine; settings: radiolabeled chelate 5 nM, antibody 133 nM, PBS pH 7.4, 15 minutes at room temperature
Experimental: As indicated, the monoclonal antibody CHA255 is specific for the In(III)-benzyl EDTA complex. The affinity and characterization have been described previously by Reardon et al. in Nature 316:265 (1985). Binding assays were performed to verify the identity of the haptens designated as DB-I to DB-X and DDB-I to DDB-III. […] For the ⁹⁰Yttrium (III) hapten chelate, in particular, CHA255 binding required the presence of the Indiumbenzyl-EDTA moiety as provided in the compounds of the invention. The labeled DB and DDB hapten chelates were combined with antibody CHA255 in PBS (10 mM sodium phosphate, 150 mM sodium chloride, pH 7.4) containing 44 µg/mL of human serum albumin and 0.05% Triton-X-100 detergent. Concentrations of the radiolabeled hapten chelating agent and antibody were 5 nM and 133 nM, respectively. The mixture was vortexed and allowed to stand at room temperature for 15 minutes, after which it was transferred to an Amicon Centrifree™ device, with a NMW limit of 30,000, and centrifuged to separate antibody-bound chelate from free hapten chelate. The species bound to the antibody was retained by the membrane and the free chelate flowed through the membrane into the filtrate. The extent of antibody-hapten chelate binding was then determined.

Row | Substance | binding affinity (affinity constant Ka for InEOTUBE) [1] | binding affinity (affinity constant Ka for InEOTUBE) [2] | binding affinity (affinity constant Ka for InEOTUBE) [3] | binding affinity (affinity constant Ka for InEOTUBE) [4] | binding affinity (affinity constant Ka for InEOTUBE) [5] | antibody-hapten chelate binding [6]
1 | 4-[N'[2-hydroxyethyl]-thioureido]benzyl EDTA [InEOTUBE] | approximately equivalent | approximately equivalent | approximately one order of magnitude less than the native phage expressed Fab' | approximately equivalent | approximately equivalent | 
2 | diethylenetriaminepentaacetic acid [⁹⁰Yttrium (III) DTPA] |  |  |  |  |  | neither ⁹⁰Yttrium (III) or ¹¹¹Indium (III) DTPA, alone, bound
